Converted amounts (≈) assume the structure as drawn. Where two headings read alike, the source gives them in different places. Positions of bridges follow the written chain, without caps; N, C: chain ends. Non-standard residues stand in square brackets, D forms with d. Residues, ends and D or L forms follow the SMILES beside them. ξ: configuration not given here. *: point of attachment. Phe(3,5-F2) = N[C@@H](Cc1cc(F)cc(F)c1)C(=O)O; Phe(3-Cl) = N[C@@H](Cc1cccc(Cl)c1)C(=O)O; ξPhe(3,5-F2) = NC(Cc1cc(F)cc(F)c1)C(=O)O; Pro(4R-Me) = C[C@H]1CN[C@H](C(=O)O)C1; Phe(2-F) = N[C@@H](Cc1ccccc1F)C(=O)O; Heptenoyl(2E) = CCCC/C=C/C(=O)*; NMeS = CN[C@@H](CO)C(=O)O; X4 = O=C(/C=C/C1CC=CCC1)*; NMeA = CN[C@@H](C)C(=O)O; X1 = CC(C)/C=C(\F)C(=O)*; X5 = CCCC(C)/C=C/C(=O)*; X2 = CCCCC/C=C/C(=O)*; ξPip = O=C(O)C1CCCCN1; X3 = O=C(C=C1CCC1)*
What was measured:
[1] = amide bond, EDC/pentafluorophenol (Pfp ester), then HCl/dioxane, then aq. NaHCO3, dichloromethane, 25.0 °C, 3 steps
[2] = tested on: Enterococcus faecalis ICB 27159; test: Minimum inhibitory concentration (MIC), liquid dilution test; format: cell-based; settings: ICB27159, Müller Hinton broth, 37° C., 18-24 hours, 8-10% of CO2
Description: (§1) Determination of the Minimum Inhibitory Concentration (MIC): The MIC is determined in the liquid dilution test. Overnight cultures of the test microorganisms are diluted 1:5 000 or S. aureus 133 is diluted 1:10 000 in Müller Hinton broth (manufacturer: BBL) and incubated with dilutions of the test substances (dilution stages 1:2). Exceptions are the tests with S. pyogenes Wacker and S. pneumoniae 1707/4, which are carried out in Müller Hinton broth plus 20% bovine serum. The cultures are incubated at 37° C. for 18-24 hours; enterococci and streptococci in the presence of 8-10% of CO2. The lowest substance concentration in each case at which visible bacterial growth no longer takes place is defined as the MIC. […] The compounds show very good antibacterial action against most of the test microorganisms and thus a broad Gram-positive action.

[3] = tested on: Enterococcus faecium L 4001; test: as above; format: cell-based; settings: L4001, Müller Hinton broth, 37° C., 18-24 hours, 8-10% of CO2
Description: as §1

[4] = tested on: Staphylococcus aureus 133; test: as above; format: cell-based; settings: Müller Hinton broth, overnight culture diluted 1:10 000, 37° C., 18-24 hours
Description: as §1

[5] = tested on: Streptococcus pneumoniae 1707/4; test: as above; format: cell-based; settings: Müller Hinton broth plus 20% bovine serum, 37° C., 18-24 hours, 8-10% of CO2
Description: as §1

[6] = tested on: Streptococcus pyogenes Wacker; test: as above; format: cell-based; settings: Müller Hinton broth plus 20% bovine serum, 37° C., 18-24 hours, 8-10% of CO2
Description: as §1

Compound | MIC [2] | MIC [3] | MIC [4] | MIC [5] | MIC [6] | ring closure, yield of all isomers ([1]; from C[C@@H]1C[C@@H](C(=O)OC[C@H](NC(=O)OCc2ccccc2)C(=O)O)N(C(=O)[C@H](C)NC(=O)[C@@H]2CCCCN2C(=O)[C@@H]2CCCN2C(=O)OC(C)(C)C)C1, 2.58 mM, 16.0 h) | ring closure, yield of all isomers ([1]; from C[C@H](NC(=O)[C@H](C)N(C)C(=O)[C@@H]1CCCN1C(=O)OC(C)(C)C)C(=O)N1CCC[C@H]1C(=O)OC[C@H](NC(=O)OCc1ccccc1)C(=O)O, 8.9 mM, 2.0 h)
C[C@@H]1C[C@H]2C(=O)OC[C@H](NC(=O)OCc3ccccc3)C(=O)N3CCC[C@H]3C(=O)N3CCCC[C@H]3C(=O)N[C@@H](C)C(=O)N2C1 |  |  |  |  |  | 60% | 
C[C@@H]1NC(=O)[C@H](C)N(C)C(=O)[C@@H]2CCCN2C(=O)[C@@H](NC(=O)OCc2ccccc2)COC(=O)[C@@H]2CCCN2C1=O |  |  |  |  |  |  | 58%
C[C@@H]1C[C@H]2C(=O)OC[C@H](NC(=O)[C@H](Cc3cc(F)cc(F)c3)NC(=O)CCC3CCCCC3)C(=O)N3CCC[C@H]3C(=O)N3CCCC[C@H]3C(=O)N[C@@H](C)C(=O)N2C1 [Example 3, 3-Cylcohexylpropanoic acid [(S)-2-(3,5-difluorophenyl)-1-((3S,9S,13S,15R,19S,22S)-15,19-Dimethyl-2,8,12,18,21-pentaoxo-11-oxa-1,7,17,20-tetraaza-tetracyclo[20.4.0.0^3,7.0^13,17]hexacos-9-ylcarbamoyl)-ethyl]-amide] | < 0.125 µg/mL | < 0.125 µg/mL | 0.5 µg/mL (≈ 0.626 µM) | < 0.125 µg/mL | 0.5 µg/mL |  | 
CCCC/C=C/C(=O)N[C@@H](Cc1cc(F)cc(F)c1)C(=O)N[C@H]1COC(=O)[C@@H]2C[C@@H](C)CN2C(=O)[C@H](C)NC(=O)[C@H](C)N(C)C(=O)[C@@H]2CCCN2C1=O [Example 6] ({Heptenoyl(2E)}-[Phe(3,5-F2)]SP[NMeA]A[Pro(4R-Me)]; ester 2-C) | < 0.125 µg/mL | < 0.125 µg/mL | < 0.125 µg/mL | 0.125 µg/mL | 0.25 µg/mL |  | 
C[C@@H]1NC(=O)[C@H](C)N(C)C(=O)[C@@H]2CCCN2C(=O)[C@@H](NC(=O)[C@H](Cc2ccccc2F)NC(=O)/C=C/C2CC=CCC2)COC(=O)[C@@H]2CCCN2C1=O (stereo partly drawn) [Example 28] (X4-[Phe(2-F)]SP[NMeA]AP; ester 2-C) | 8 µg/mL (≈ 10.9 µM) | 4 µg/mL (≈ 5.43 µM) | 8 µg/mL (≈ 10.9 µM) | 1 µg/mL | 2 µg/mL |  | 
CCCCC/C=C/C(=O)N[C@@H](Cc1cccc(Cl)c1)C(=O)N[C@H]1COC(=O)[C@@H]2CCCN2C(=O)[C@H](C)NC(=O)[C@H](C)N(C)C(=O)[C@@H]2CCCN2C1=O [Example 32] (X2-[Phe(3-Cl)]SP[NMeA]AP; ester 2-C) | 1 µg/mL (≈ 1.35 µM) | 0.5 µg/mL (≈ 0.673 µM) | 4 µg/mL (≈ 5.38 µM) | 2 µg/mL | 2 µg/mL |  | 
CCCC/C=C/C(=O)NC(Cc1cc(F)cc(F)c1)C(=O)N[C@H]1COC(=O)[C@@H]2CCCN2C(=O)CNC(=O)C2CCCCN2C(=O)[C@@H]2CCCN2C1=O (stereo partly drawn) [Example 61] ({Heptenoyl(2E)}-[ξPhe(3,5-F2)]SP[ξPip]GP; ester 2-C) | 32 µg/mL (≈ 43.1 µM) | 32 µg/mL (≈ 43.1 µM) | 64 µg/mL (≈ 86.2 µM) | 16 µg/mL | 16 µg/mL |  | 
C=CCC/C=C/C(=O)N[C@@H](Cc1cc(F)cc(F)c1)C(=O)N[C@H]1COC(=O)[C@@H]2C[C@@H](C)CN2C(=O)[C@H](C)NC(=O)[C@@H]2CCCCN2C(=O)[C@@H]2CCCN2C1=O [Example 79] | < 0.125 µg/mL | < 0.125 µg/mL | 0.25 µg/mL (≈ 0.325 µM) | 0.5 µg/mL | 1 µg/mL |  | 

More lines, main results first:

MIC [2] | MIC [3] | MIC [4] | MIC [5] | MIC [6] | Compound | ring closure, yield of all isomers ([1]; from C[C@@H]1C[C@@H](C(=O)OC[C@H](NC(=O)OCc2ccccc2)C(=O)O)N(C(=O)[C@H](C)NC(=O)[C@@H]2CCCCN2C(=O)[C@@H]2CCCN2C(=O)OC(C)(C)C)C1, 2.58 mM, 16.0 h) | ring closure, yield of all isomers ([1]; from C[C@H](NC(=O)[C@H](C)N(C)C(=O)[C@@H]1CCCN1C(=O)OC(C)(C)C)C(=O)N1CCC[C@H]1C(=O)OC[C@H](NC(=O)OCc1ccccc1)C(=O)O, 8.9 mM, 2.0 h)
< 0.125 µg/mL | < 0.125 µg/mL | 0.25 µg/mL (≈ 0.342 µM) | < 0.125 µg/mL | 25 µg/mL | CCCC/C=C/C(=O)N[C@@H](Cc1cc(F)cc(F)c1)C(=O)N[C@H]1COC(=O)[C@@H]2CCCN2C(=O)[C@H](C)NC(=O)[C@H](C)N(C)C(=O)[C@@H]2CCCN2C1=O [Example 1, (E)-Hept-2-enoic acid [(S)-2-(3,5-difluorophenyl)-1-((3S,7S,13S,16S,19S)-13,16,17-trimethyl-2,6,12,15,18-pentaoxo-5-oxa-1,11,14,17-tetraazatricyclo[17.3.0.0^7,11]docos-3-ylcarbamoyl)-ethyl]-amide] ({Heptenoyl(2E)}-[Phe(3,5-F2)]SP[NMeA]AP; ester 2-C) |  | 
< 0.125 µg/mL | < 0.125 µg/mL | 0.25 µg/mL (≈ 0.335 µM) | < 0.125 µg/mL | < 0.125 µg/mL | CCCC/C=C/C(=O)N[C@@H](Cc1cc(F)cc(F)c1)C(=O)N[C@H]1COC(=O)[C@@H]2CCCN2C(=O)[C@H](C)NC(=O)[C@H](CO)N(C)C(=O)[C@@H]2CCCN2C1=O [Example 13] ({Heptenoyl(2E)}-[Phe(3,5-F2)]SP[NMeS]AP; ester 2-C) |  | 
< 0.125 µg/mL | < 0.125 µg/mL | 0.5 µg/mL (≈ 0.671 µM) | < 0.125 µg/mL | 0.25 µg/mL | CCCC(C)/C=C/C(=O)N[C@@H](Cc1cc(F)cc(F)c1)C(=O)N[C@H]1COC(=O)[C@@H]2CCCN2C(=O)[C@H](C)NC(=O)[C@H](C)N(C)C(=O)[C@@H]2CCCN2C1=O (stereo partly drawn) [Example 75] (X5-[Phe(3,5-F2)]SP[NMeA]AP; ester 2-C) |  | 
0.5 µg/mL (≈ 0.68 µM) | 0.5 µg/mL (≈ 0.68 µM) | 4 µg/mL (≈ 5.44 µM) | 0.25 µg/mL | 0.5 µg/mL | CC(C)/C=C(\F)C(=O)N[C@@H](Cc1cc(F)cc(F)c1)C(=O)N[C@H]1COC(=O)[C@@H]2CCCN2C(=O)[C@H](C)NC(=O)[C@H](C)N(C)C(=O)[C@@H]2CCCN2C1=O [Example 84] (X1-[Phe(3,5-F2)]SP[NMeA]AP; ester 2-C) |  | 
2 µg/mL (≈ 2.8 µM) | 4 µg/mL (≈ 5.6 µM) | 32 µg/mL (≈ 44.8 µM) | 1 µg/mL | 2 µg/mL | C[C@@H]1NC(=O)[C@H](C)N(C)C(=O)[C@@H]2CCCN2C(=O)[C@@H](NC(=O)[C@H](Cc2cc(F)cc(F)c2)NC(=O)C=C2CCC2)COC(=O)[C@@H]2CCCN2C1=O [Example 85] (X3-[Phe(3,5-F2)]SP[NMeA]AP; ester 2-C) |  | 

— patent US7405201B2, “Antibacterial macrocycles” (Bayer Healthcare AG, priority 2001, dated 2008)
